Assay results published in ChEMBL document CHEMBL4002599, “Structure-based design and synthesis of imidazo[1,2-a]pyridine derivatives as novel and potent Nek2 inhibitors with in vitro and in vivo antitumor activities” (Eur J Med Chem, 2017).
One block for each compound: values may come before it. The source made the active and inactive calls. No cut-off for these calls is given here.

Columns and labels:
[1] = test system: HCT-116; assay: Induction of apoptosis in human HCT116 cells assessed as late apoptotic cells at 1 uM measured after 24 hrs by Annexin-V/PI staining based flow cytometry (reference value: […]); assay type: functional
[2] = test system: HCT-116; assay: Induction of apoptosis in human HCT116 cells assessed as necrotic cells at 1 uM measured after 24 hrs by Annexin-V/PI staining based flow cytometry (reference value: 0.4%); assay type: functional
[3] = target: Ribosomal protein S6 kinase alpha-1 (Homo sapiens, UniProt Q15418); assay: Inhibition of RSK1 (unknown origin)
Chain of Ribosomal protein S6 kinase alpha-1 (Q15418 whole entry, canonical isoform): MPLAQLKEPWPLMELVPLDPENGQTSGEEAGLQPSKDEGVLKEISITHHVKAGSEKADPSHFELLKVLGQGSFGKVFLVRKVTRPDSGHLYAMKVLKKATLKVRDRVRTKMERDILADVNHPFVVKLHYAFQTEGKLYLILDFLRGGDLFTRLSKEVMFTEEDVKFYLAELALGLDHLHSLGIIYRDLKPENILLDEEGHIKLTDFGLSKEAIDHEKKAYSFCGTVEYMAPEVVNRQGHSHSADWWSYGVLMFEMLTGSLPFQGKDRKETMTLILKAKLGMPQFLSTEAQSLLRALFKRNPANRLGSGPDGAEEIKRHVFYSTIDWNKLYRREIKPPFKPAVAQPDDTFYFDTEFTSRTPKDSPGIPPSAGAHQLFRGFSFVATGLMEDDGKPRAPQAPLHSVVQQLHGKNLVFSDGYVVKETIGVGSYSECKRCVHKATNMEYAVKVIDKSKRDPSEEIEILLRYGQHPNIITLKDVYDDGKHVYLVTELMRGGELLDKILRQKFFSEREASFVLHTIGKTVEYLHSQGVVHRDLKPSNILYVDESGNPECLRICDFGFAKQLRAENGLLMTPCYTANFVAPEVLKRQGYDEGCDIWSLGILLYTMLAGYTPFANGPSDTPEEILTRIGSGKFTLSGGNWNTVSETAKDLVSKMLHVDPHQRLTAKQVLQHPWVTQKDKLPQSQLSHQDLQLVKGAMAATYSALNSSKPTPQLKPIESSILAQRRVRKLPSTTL

[4] = target: Phosphatidylinositol 4,5-bisphosphate 3-kinase catalytic subunit alpha isoform (Homo sapiens, UniProt P42336); assay: Inhibition of PI3Kalpha (unknown origin)
Chain of Phosphatidylinositol 4,5-bisphosphate 3-kinase catalytic subunit alpha isoform (P42336 whole entry, canonical isoform): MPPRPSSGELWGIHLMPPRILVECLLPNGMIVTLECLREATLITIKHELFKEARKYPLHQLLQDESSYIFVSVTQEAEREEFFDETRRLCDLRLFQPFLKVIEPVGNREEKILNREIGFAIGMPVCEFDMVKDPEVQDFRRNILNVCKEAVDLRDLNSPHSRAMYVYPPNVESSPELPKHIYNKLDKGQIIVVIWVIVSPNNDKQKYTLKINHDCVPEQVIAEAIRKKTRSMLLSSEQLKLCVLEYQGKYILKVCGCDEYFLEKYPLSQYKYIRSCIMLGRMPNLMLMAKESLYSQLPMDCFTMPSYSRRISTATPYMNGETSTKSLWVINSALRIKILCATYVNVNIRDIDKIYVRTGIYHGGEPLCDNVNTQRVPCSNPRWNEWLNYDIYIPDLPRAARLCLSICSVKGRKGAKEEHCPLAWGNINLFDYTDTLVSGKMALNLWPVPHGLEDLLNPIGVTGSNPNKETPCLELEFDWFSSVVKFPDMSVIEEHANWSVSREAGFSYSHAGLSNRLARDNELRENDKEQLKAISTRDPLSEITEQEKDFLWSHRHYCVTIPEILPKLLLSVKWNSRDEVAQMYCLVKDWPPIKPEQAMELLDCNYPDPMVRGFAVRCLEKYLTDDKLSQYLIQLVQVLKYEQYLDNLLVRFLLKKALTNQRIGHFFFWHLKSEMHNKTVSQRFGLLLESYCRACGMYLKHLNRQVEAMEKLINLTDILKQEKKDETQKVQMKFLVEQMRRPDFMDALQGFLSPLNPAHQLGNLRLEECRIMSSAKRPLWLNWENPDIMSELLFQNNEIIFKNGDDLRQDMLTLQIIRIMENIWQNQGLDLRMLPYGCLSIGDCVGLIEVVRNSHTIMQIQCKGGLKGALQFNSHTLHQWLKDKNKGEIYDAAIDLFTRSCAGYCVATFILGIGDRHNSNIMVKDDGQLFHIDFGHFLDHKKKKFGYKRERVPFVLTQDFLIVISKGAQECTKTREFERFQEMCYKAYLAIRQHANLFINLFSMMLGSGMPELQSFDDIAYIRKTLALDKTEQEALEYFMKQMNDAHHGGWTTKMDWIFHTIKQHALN

[5] = MRT (0 to t) in Sprague-Dawley rat at 1 mg/kg, iv administered as bolus dose by LC-MS/MS method; assay type: ADME, organism-based; conditions: in vivo
[6] = test system: HCT-116; assay: Induction of apoptosis in human HCT116 cells assessed as early apoptotic cells at 1 uM measured after 24 hrs by Annexin-V/PI staining based flow cytometry (reference value: 4%); assay type: functional
[7] = test system: Rattus norvegicus; assay: AUC (0 to t) in Sprague-Dawley rat at 1 mg/kg, iv administered as bolus dose by LC-MS/MS method; assay type: ADME, organism-based; conditions: in vivo
[8] = Half-life in Sprague-Dawley rat at 1 mg/kg, iv administered as bolus dose by LC-MS/MS method; assay type: ADME, organism-based; conditions: in vivo
[9] = test system: Rattus norvegicus; assay: AUC (0 to infinity) in Sprague-Dawley rat at 1 mg/kg, iv administered as bolus dose by LC-MS/MS method; assay type: ADME, organism-based; design: dose 1 mg/kg, time infinity, route intravenous; conditions: in vivo
[10] = test system: MGC-803; assay: Cytotoxicity against human MGC803 cells measured after 72 hrs by MTT assay; assay type: functional, cell-based; conditions: MGC-803, 72 h
[11] = test system: HCT-116; assay: Induction of apoptosis in human HCT116 cells assessed as necrotic cells at 0.5 uM measured after 24 hrs by Annexin-V/PI staining based flow cytometry (reference value: 0.4%); assay type: functional
[12] = Volume of distribution at steady state in Sprague-Dawley rat at 1 mg/kg, iv administered as bolus dose by LC-MS/MS method; assay type: ADME, organism-based; conditions: in vivo, read-out: Vdss
[13] = test system: Bel-7402; assay: Cytotoxicity against human Bel7402 cells measured after 72 hrs by MTT assay; assay type: functional, cell-based; conditions: Bel-7402, 72 h
[14] = test system: HCT-116; assay: Induction of apoptosis in human HCT116 cells assessed as early apoptotic cells at 0.5 uM measured after 24 hrs by Annexin-V/PI staining based flow cytometry (reference value: 4%); assay type: functional
[15] = target: Tyrosine-protein kinase ABL1 (Homo sapiens, UniProt P00519); assay: Inhibition of ABL (unknown origin)
Chain of Tyrosine-protein kinase ABL1 (P00519 whole entry): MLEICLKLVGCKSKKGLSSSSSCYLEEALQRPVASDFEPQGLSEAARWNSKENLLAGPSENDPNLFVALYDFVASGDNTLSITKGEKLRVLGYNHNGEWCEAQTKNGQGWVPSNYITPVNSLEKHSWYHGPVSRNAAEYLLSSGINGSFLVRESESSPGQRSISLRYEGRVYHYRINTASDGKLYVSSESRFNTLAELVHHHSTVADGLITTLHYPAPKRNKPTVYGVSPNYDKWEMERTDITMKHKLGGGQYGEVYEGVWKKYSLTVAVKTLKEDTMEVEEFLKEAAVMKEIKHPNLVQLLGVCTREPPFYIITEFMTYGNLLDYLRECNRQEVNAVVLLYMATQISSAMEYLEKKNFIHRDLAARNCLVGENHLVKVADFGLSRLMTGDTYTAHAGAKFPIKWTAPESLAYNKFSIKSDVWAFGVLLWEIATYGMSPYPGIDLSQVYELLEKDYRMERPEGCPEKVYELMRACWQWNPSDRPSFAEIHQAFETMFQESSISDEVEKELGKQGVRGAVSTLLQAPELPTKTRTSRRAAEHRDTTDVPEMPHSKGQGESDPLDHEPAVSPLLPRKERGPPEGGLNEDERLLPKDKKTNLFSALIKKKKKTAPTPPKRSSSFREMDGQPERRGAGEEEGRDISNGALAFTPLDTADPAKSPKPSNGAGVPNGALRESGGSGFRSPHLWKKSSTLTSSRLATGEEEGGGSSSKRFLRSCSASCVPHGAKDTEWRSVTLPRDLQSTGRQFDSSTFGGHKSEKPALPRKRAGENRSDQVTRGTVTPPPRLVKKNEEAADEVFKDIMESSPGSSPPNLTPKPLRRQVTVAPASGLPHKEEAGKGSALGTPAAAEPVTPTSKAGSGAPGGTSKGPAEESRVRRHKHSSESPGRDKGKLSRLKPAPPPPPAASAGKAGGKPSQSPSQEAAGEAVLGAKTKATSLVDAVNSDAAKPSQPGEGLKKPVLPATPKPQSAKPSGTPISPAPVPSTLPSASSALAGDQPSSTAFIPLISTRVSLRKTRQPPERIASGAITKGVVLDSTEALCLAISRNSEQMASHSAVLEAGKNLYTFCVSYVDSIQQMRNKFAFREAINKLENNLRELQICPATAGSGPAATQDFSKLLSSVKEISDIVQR

[16] = target: Mitogen-activated protein kinase 14 (Homo sapiens, UniProt Q16539); assay: Inhibition of P38alpha (unknown origin)
Chain of Mitogen-activated protein kinase 14 (Q16539 whole entry): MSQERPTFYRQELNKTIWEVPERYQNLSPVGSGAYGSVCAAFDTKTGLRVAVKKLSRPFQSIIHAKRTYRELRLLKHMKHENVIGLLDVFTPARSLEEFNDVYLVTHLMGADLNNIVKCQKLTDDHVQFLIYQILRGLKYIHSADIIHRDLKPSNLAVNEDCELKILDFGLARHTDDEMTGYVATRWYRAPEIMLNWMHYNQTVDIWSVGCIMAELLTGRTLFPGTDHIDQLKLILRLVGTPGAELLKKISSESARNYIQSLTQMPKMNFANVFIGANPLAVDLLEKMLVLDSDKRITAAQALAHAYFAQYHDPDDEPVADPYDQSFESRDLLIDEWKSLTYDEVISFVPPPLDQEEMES

[17] = target: Glycogen synthase kinase-3 beta (Homo sapiens, UniProt P49841); assay: Inhibition of GSK3beta (unknown origin)
Chain of Glycogen synthase kinase-3 beta (P49841 whole entry): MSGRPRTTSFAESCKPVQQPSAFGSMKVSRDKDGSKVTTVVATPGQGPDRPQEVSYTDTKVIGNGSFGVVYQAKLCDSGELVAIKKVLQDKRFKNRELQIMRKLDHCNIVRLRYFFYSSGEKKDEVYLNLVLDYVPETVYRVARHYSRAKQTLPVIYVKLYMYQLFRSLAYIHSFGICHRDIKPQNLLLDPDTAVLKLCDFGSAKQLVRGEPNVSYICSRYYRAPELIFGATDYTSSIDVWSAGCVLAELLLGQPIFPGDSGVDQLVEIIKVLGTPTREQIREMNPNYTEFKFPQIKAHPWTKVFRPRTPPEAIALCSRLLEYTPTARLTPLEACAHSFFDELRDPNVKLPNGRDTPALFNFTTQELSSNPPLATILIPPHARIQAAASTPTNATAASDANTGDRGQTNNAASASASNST

[18] = target: RAC-alpha serine/threonine-protein kinase (Homo sapiens, UniProt P31749); assay: Inhibition of AKT1 (unknown origin)
Chain of RAC-alpha serine/threonine-protein kinase (P31749 whole entry): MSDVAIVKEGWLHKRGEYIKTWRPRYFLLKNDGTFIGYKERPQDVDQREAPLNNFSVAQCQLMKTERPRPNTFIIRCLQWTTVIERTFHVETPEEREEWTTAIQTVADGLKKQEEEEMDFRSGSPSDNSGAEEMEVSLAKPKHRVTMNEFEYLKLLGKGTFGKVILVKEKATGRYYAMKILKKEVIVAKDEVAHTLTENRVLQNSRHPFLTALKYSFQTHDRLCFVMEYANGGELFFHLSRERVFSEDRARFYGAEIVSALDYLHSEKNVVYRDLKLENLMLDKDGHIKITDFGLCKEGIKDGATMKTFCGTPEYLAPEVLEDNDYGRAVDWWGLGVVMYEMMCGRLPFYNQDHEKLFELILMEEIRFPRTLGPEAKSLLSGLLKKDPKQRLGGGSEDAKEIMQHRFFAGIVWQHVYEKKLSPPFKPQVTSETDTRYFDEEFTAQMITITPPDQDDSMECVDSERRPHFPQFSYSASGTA

[19] = test system: HCT-116; assay: Cytotoxicity against human HCT116 cells measured after 72 hrs by MTT assay; assay type: functional, cell-based; conditions: HCT-116, 72 h
[20] = target: T1, Serine/threonine-protein kinase Chk1 (Homo sapiens, UniProt O14757); assay: Inhibition of CHK1 (unknown origin)
T1 sequence (O14757 whole entry): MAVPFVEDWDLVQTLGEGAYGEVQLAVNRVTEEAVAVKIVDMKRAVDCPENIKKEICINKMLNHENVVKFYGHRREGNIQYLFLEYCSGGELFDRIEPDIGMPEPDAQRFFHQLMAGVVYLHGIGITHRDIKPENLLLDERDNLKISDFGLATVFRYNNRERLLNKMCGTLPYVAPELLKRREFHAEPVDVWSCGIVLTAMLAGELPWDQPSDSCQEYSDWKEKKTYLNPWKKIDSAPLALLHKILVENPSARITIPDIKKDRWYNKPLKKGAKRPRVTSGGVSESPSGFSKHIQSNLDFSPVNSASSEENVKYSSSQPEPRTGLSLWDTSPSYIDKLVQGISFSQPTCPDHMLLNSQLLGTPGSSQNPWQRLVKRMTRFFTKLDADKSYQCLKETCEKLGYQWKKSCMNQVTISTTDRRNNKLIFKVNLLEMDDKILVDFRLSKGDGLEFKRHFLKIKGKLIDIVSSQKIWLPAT

[21] = test system: HCT-116; assay: Induction of apoptosis in human HCT116 cells assessed as late apoptotic cells at 0.5 uM measured after 24 hrs by Annexin-V/PI staining based flow cytometry (reference value: […]); assay type: functional
[22] = Clearance in Sprague-Dawley rat at 1 mg/kg, iv administered as bolus dose by LC-MS/MS method; assay type: ADME, organism-based; conditions: in vivo
[23] = target: T2, Serine/threonine-protein kinase Nek2 (Homo sapiens, UniProt P51955); assay: Inhibition of N-terminal His6-tagged full-length recombinant human NEK2 expressed in baculovirus infected sf21 cells using biotin labelled-STK-3 substrate measured after 60 mins by HTRF assay
T2 sequence (P51955 whole entry): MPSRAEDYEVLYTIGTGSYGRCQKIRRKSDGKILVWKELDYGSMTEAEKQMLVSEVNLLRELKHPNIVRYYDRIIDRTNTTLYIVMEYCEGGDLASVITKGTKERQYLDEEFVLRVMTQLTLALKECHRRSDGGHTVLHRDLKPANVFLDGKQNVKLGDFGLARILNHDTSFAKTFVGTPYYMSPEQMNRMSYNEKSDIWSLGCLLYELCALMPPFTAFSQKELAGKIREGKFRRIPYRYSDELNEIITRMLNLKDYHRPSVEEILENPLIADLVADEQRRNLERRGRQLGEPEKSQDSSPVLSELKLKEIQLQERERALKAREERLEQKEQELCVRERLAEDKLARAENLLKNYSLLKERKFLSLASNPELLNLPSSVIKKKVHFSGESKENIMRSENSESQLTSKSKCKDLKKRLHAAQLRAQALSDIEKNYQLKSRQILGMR

[24] = target: Cyclin-dependent kinase 2 (Homo sapiens, UniProt P24941); assay: Inhibition of CDK2 (unknown origin)
[25] = target: MAP kinase-activated protein kinase 2 (Homo sapiens, UniProt P49137); assay: Inhibition of MAPKAPK2 (unknown origin)
Chain of MAP kinase-activated protein kinase 2 (P49137 whole entry): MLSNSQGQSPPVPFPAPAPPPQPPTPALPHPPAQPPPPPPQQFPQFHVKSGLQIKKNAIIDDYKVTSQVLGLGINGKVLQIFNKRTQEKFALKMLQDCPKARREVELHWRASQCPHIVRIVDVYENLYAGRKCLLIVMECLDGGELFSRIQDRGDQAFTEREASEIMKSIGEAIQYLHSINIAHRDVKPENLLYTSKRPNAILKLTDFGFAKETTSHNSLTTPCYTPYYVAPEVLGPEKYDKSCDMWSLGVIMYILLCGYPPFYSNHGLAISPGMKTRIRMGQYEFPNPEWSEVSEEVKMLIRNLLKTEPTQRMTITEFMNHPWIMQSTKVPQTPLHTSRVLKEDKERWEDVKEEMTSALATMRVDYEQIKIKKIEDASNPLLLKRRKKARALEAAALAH

[26] = target: Dual specificity tyrosine-phosphorylation-regulated kinase 1A (Homo sapiens, UniProt Q13627); assay: Inhibition of DYRK1A (unknown origin)
[27] = target: T3, Aurora kinase A (Homo sapiens, UniProt O14965); assay: Inhibition of Aurora A (unknown origin)
T3 sequence (O14965 whole entry): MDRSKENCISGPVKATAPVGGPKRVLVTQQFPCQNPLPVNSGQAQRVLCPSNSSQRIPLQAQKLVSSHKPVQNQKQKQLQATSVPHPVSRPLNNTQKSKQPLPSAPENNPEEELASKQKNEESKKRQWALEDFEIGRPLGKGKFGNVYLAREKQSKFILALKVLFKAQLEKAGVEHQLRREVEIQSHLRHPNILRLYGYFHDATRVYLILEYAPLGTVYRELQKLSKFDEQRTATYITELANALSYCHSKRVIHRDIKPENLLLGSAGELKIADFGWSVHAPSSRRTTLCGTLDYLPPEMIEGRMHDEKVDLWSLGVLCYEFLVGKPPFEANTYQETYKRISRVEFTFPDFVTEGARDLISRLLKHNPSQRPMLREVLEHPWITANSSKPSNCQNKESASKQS

[28] = target: Cyclin-dependent kinase 4 (Homo sapiens, UniProt P11802); assay: Inhibition of CDK4 (unknown origin)
Chain of Cyclin-dependent kinase 4 (P11802 whole entry): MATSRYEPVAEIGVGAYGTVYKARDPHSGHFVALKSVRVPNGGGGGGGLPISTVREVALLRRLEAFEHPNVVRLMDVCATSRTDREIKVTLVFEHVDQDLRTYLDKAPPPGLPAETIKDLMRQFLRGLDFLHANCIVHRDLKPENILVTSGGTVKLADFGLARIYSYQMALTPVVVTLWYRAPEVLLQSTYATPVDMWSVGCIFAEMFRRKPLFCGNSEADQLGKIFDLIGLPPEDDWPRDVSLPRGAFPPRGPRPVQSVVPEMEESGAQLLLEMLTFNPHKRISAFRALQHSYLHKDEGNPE

[29] = test system: Mus musculus; assay: Toxicity in BALB/c nu/nu mouse assessed as body weight loss at 20 mg/kg, ip administered twice daily for 21 days; assay type: organism-based; conditions: in vivo
[30] = test system: HCT-116; assay: Antitumor activity against human HCT116 cells xenografted in BALB/c nu/nu mouse assessed as tumor growth inhibition at 20 mg/kg, ip administered twice daily for 21 days; assay type: functional; conditions: HCT-116, ip, read-out: TGI
[31] = test system: HCT-116; assay: Induction of apoptosis in human HCT116 cells measured after 24 hrs by Annexin-V/PI staining based flow cytometry; assay type: functional, cell-based
[32] = test system: HCT-116; assay: Cell cycle arrest in human HCT116 cells assessed as accumulation at G2/M phase at 0.5 to 1 uM measured after 24 hrs by propidium iodide staining based flow cytometry; assay type: functional
[33] = test system: HCT-116; assay: Cell cycle arrest in human HCT116 cells assessed as G2/M phase accumulation by measuring >4N DNA content at 0.5 to 1 uM measured after 24 hrs by propidium iodide staining based flow cytometry; assay type: functional
[34] = test system: HCT-116; assay: Antitumor activity against human HCT116 cells xenografted in BALB/c nu/nu mouse assessed as reduction in tumor volume at 20 mg/kg, ip administered twice daily for 21 days; assay type: functional, organism-based

IC50 [3]: 0.0054 µM
IC50 [4]: 6.23 µM
MRT last [5]: 1.3 h
AUCt [7]: 495 ng·h/mL
half-life [8]: 1.72 h
AUC [9]: 507 ng·h/mL
Vd [12]: 2.53 L/kg
IC50 [15]: 0.02 µM
IC50 [16]: > 10 µM
IC50 [17]: 0.091 µM
IC50 [18]: 0.608 µM
IC50 [20]: 0.057 µM
clearance [22]: 33.3 mL/min/kg
IC50 [23]: 0.001 µM
IC50 [24]: 0.37 µM
IC50 [25]: > 10 µM
IC50 [26]: 0.0065 µM
IC50 [27]: 5.3 µM
IC50 [28]: 0.441 µM
Structure (SMILES): CN(C)CCn1cc(-c2ccn3c(-c4ccc(C(N)=O)c(OCc5cccc(F)c5)c4)cnc3c2)cn1 [listing 1 of 2 here]
Activity [1]: 26.7%
Activity [2]: 3.5%
Activity [6]: 27.8%
IC50 [10]: 0.53 µM
Activity [11]: 2.6%
IC50 [13]: 7.13 µM
Activity [14]: 21.3%
IC50 [19]: 0.84 µM
Activity [21]: 20.1%

IC50 [23]: 10 µM
Structure (SMILES): CN1CCN(c2ccn3c(-c4ccc(C(=O)NO)c(OCc5ccccc5C(F)(F)F)c4)cnc3c2)CC1
IC50 [10]: 17.1 µM

IC50 [23]: 3.21 µM
Structure (SMILES): CN1CCN(c2ccn3c(-c4ccc(C(N)=O)c(OCc5ccccc5)c4)cnc3c2)CC1
IC50 [10]: 6.21 µM

IC50 [23]: 19.3 µM
Structure (SMILES): COc1cc(-c2cnc3cc(N4CCN(C)CC4)ccn23)ccc1C(N)=O
IC50 [10]: > 30 µM

The next lines start with the compound.

Structure (SMILES): CN(C)CCn1cc(-c2ccn3c(-c4ccc(C(N)=O)c(OCc5cccc(F)c5)c4)cnc3c2)cn1.O=C(O)CCC(=O)O.O=C(O)CCC(=O)O
Activity [29]: Non-Toxic
inhibition in vivo at 20 mg/kg [30]: 36%

Structure (SMILES): C[C@@H](Oc1cc(-c2cnc3cc(N4CCN(C)CC4)ccn23)ccc1C(N)=O)c1ccccc1C(F)(F)F
IC50 [10]: 3.16 µM
IC50 [23]: 1.19 µM

Structure (SMILES): CN(C)CCn1cc(-c2ccn3c(-c4ccc(C(N)=O)c(OCc5cccc(C(F)(F)F)c5)c4)cnc3c2)cn1
MRT last [5]: 1.38 h
AUCt [7]: 262 ng·h/mL
half-life [8]: 1.49 h
AUC [9]: 268 ng·h/mL
IC50 [10]: 0.79 to 0.8 µM
Vd [12]: 5.08 L/kg
IC50 [13]: 2.78 µM
IC50 [19]: 1.29 µM
clearance [22]: 62.8 mL/min/kg
IC50 [23]: 0.007 µM
IC50 [27]: > 10 µM

Structure (SMILES): CN(C)CCn1cc(-c2ccn3c(-c4ccc(C(N)=O)c(OCc5cccc(F)c5)c4)cnc3c2)cn1 [listing 2 of 2 here]
Activity [31]: Dose-dependent effect
Activity [32]: Active
Activity [33]: Active
Activity [34]: Active

Structure (SMILES): COC(=O)c1ccc(-c2cnc3cc(N4CCN(C)CC4)ccn23)cc1OC(C)c1ccccc1C(F)(F)F (stereo not drawn)
IC50 [23]: 42.6 µM

Structure (SMILES): CNC(=O)c1ccc(-c2cnc3cc(N4CCN(C)CC4)ccn23)cc1OC(C)c1ccccc1C(F)(F)F (stereo not drawn)
IC50 [23]: 197 µM

Structure (SMILES): CC(Oc1cc(-c2cnc3cc(N4CCN(C)CC4)ccn23)ccc1C(N)=O)c1ccccc1C(F)(F)F (stereo not drawn)
IC50 [10]: 12.3 µM
IC50 [23]: 2.17 µM

Structure (SMILES): CN(C)CCn1cc(-c2ccn3c(-c4ccc(C(N)=O)c(OCc5ccccc5)c4)cnc3c2)cn1
MRT last [5]: 1.68 h
AUCt [7]: 386 ng·h/mL
half-life [8]: 2.42 h
AUC [9]: 405 ng·h/mL
Vd [12]: 4.06 L/kg
clearance [22]: 42.4 mL/min/kg
